According to ChEMBL document CHEMBL5325488, “Discovery of SMD-3040 as a Potent and Selective SMARCA2 PROTAC Degrader with Strong in vivo Antitumor Activity” (J Med Chem, 2023):
Activity calls are given as the source filed them. The rule behind the calls is not given here.

Columns and labels:
[1] = molecular target: T1, von Hippel-Lindau disease tumor suppressor/SWI/SNF-related matrix-associated actin-dependent regulator of chromatin subfamily A member 2 (Homo sapiens, UniProt P51531+P40337); assay: PROTAC activity at VHL/C-terminal HiBiT fused SMARCA2 in human HeLa cells assessed as induction of SMARCA2 degradation incubated for 1 hr by Nano-Glo HiBiT analysis; assay type: cell-based
Target sequence in this assay (P51531 whole entry, the tested form may be a part): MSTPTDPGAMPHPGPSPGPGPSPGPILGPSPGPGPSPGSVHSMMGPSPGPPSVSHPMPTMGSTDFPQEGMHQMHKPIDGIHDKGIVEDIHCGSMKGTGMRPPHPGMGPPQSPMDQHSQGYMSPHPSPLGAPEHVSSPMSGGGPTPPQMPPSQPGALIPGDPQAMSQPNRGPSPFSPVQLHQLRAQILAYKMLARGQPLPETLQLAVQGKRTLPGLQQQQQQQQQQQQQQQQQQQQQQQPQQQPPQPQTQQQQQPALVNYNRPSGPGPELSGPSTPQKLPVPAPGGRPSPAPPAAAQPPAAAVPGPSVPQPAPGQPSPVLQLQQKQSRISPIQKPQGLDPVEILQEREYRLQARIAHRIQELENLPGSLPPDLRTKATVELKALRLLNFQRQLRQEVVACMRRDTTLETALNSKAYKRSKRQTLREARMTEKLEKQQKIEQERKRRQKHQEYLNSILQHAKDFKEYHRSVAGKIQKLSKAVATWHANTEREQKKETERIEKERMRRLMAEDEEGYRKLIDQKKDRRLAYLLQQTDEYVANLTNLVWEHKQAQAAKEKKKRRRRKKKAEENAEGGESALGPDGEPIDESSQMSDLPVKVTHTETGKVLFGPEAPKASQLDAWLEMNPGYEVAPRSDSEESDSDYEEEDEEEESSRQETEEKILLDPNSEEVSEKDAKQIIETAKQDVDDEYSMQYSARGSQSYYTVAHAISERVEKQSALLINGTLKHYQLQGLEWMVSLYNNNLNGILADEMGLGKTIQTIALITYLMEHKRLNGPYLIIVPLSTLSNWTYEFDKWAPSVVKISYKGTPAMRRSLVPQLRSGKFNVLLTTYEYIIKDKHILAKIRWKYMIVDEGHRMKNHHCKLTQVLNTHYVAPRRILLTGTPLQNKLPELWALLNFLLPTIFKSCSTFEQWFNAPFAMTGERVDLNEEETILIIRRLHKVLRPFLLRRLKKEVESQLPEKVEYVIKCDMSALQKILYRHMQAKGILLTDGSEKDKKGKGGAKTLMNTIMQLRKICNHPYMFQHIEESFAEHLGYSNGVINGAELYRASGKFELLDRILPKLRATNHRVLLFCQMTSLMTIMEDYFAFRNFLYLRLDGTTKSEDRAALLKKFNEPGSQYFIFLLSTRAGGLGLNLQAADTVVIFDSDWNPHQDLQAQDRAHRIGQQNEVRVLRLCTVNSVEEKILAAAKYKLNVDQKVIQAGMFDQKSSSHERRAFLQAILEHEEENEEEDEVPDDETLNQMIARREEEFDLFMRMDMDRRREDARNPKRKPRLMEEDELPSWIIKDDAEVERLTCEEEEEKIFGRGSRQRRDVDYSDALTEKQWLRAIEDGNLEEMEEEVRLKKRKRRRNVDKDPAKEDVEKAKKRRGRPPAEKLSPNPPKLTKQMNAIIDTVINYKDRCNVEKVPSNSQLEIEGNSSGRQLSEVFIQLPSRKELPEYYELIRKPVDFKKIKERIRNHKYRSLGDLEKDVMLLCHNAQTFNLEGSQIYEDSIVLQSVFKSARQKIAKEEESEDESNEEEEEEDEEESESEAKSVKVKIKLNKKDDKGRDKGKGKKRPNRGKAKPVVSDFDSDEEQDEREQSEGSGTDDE
Target sequence in this assay (P40337 whole entry, the tested form may be a part): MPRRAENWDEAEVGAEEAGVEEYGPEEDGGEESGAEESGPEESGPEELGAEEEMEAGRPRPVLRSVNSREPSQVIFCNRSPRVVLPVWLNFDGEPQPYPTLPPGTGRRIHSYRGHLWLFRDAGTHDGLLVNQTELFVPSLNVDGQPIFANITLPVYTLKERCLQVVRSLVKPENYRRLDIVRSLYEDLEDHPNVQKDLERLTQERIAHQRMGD

[2] = molecular target: T1, von Hippel-Lindau disease tumor suppressor/SWI/SNF-related matrix-associated actin-dependent regulator of chromatin subfamily A member 2; assay: PROTAC activity at VHL/C-terminal HiBiT fused SMARCA2 in human HeLa cells assessed as induction of SMARCA2 degradation by measuring maximal efficacy at 0.0001 to 1 uM incubated for 48 hrs by Nano-Glo HiBiT analysis relative to control; assay type: cell-based; settings: dose 0.0001-1 µM
Target sequence in this assay (P40337 whole entry, looked up, the tested form may be a part): as the sequence (P40337 whole entry, the tested form may be a part) above
Target sequence in this assay (P51531 whole entry, looked up, the tested form may be a part): as the sequence (P51531 whole entry, the tested form may be a part) above

[3] = molecular target: T2, von Hippel-Lindau disease tumor suppressor/SWI/SNF-related matrix-associated actin-dependent regulator of chromatin subfamily A member 4 (Homo sapiens, UniProt P51532+P40337); assay: PROTAC activity at VHL/C-terminal HiBiT fused SMARCA4 in human HeLa cells assessed as induction of SMARCA4 degradation by measuring maximal efficacy at 0.001 to 10 uM incubated for 1 hr by Nano-Glo HiBiT analysis relative to control; assay type: cell-based; settings: dose 0.001-10 µM
[4] = molecular target: T2, von Hippel-Lindau disease tumor suppressor/SWI/SNF-related matrix-associated actin-dependent regulator of chromatin subfamily A member 4; assay: PROTAC activity at VHL/C-terminal HiBiT fused SMARCA4 in human HeLa cells assessed as induction of SMARCA4 degradation incubated for 3 hrs by Nano-Glo HiBiT analysis; assay type: cell-based
[5] = molecular target: T1, von Hippel-Lindau disease tumor suppressor/SWI/SNF-related matrix-associated actin-dependent regulator of chromatin subfamily A member 2; assay: PROTAC activity at VHL/C-terminal HiBiT fused SMARCA2 in human HeLa cells assessed as induction of SMARCA2 degradation pre-treated with PR171 for 2 hrs followed by compound treatment for 24 hrs by Nano-Glo HiBiT analysis; assay type: cell-based
Target sequence in this assay (P40337 whole entry, looked up, the tested form may be a part): as the sequence (P40337 whole entry, the tested form may be a part) above
Target sequence in this assay (P51531 whole entry, looked up, the tested form may be a part): as the sequence (P51531 whole entry, the tested form may be a part) above

[6] = molecular target: T1, von Hippel-Lindau disease tumor suppressor/SWI/SNF-related matrix-associated actin-dependent regulator of chromatin subfamily A member 2; assay: PROTAC activity at VHL/C-terminal HiBiT fused SMARCA2 in human HeLa cells assessed as induction of SMARCA2 degradation pre-treated with (2S,4R)-1-((S)-2-acetamido-3,3-dimethylbutanoyl)-4-hydroxy-N-((S)-1-(4-(4-methylthiazol-5-yl)phenyl)ethyl)pyrrolidine-2-carboxamide for 2 hrs followed by compound treatment for 24 hrs by Nano-Glo HiBiT analysis; assay type: cell-based
Target sequence in this assay (P40337 whole entry, looked up, the tested form may be a part): as the sequence (P40337 whole entry, the tested form may be a part) above
Target sequence in this assay (P51531 whole entry, looked up, the tested form may be a part): as the sequence (P51531 whole entry, the tested form may be a part) above

[7] = molecular target: T1, von Hippel-Lindau disease tumor suppressor/SWI/SNF-related matrix-associated actin-dependent regulator of chromatin subfamily A member 2; assay: PROTAC activity at VHL/wild-type SMARCA2 in human NCI-H838 cells assessed as induction of SMARCA2 degradation at 0.001 to 1000 nM incubated for 24 hrs by Western blotting analysis relative to control; assay type: cell-based; settings: dose 0.001-1000 nM
Target sequence in this assay (P40337 whole entry, looked up, the tested form may be a part): as the sequence (P40337 whole entry, the tested form may be a part) above
Target sequence in this assay (P51531 whole entry, looked up, the tested form may be a part): as the sequence (P51531 whole entry, the tested form may be a part) above

[8] = Antiproliferative activity against SMARCA4-deficient human NCI-H1568 cells assessed as cell growth inhibition measured after 7 days by WST-8 assay; assay type: functional; settings: NCI-H1568, 168 h, time 7 day
NCI-H1975 = assay: Antiproliferative activity against human NCI-H1975 cells expressing wild-type SMARCA2 assessed as cell growth inhibition measured after 7 days by WST-8 assay; assay type: functional; settings: NCI-H1975, 168 h, time 7 day
SK-MEL-28 = assay: Antiproliferative activity against human SK-MEL-28 cells expressing wild-type SMARCA2 assessed as cell growth inhibition measured after 7 days by WST-8 assay; assay type: functional; settings: SK-MEL-28, 168 h, time 7 day
NCI-H647 = assay: Antiproliferative activity against human NCI-H647 cells expressing wild-type SMARCA2 assessed as cell growth inhibition by measuring maximal efficacy measured after 7 days by WST-8 assay relative to control; assay type: functional; settings: time 7 day
[9] = molecular target: T1, von Hippel-Lindau disease tumor suppressor/SWI/SNF-related matrix-associated actin-dependent regulator of chromatin subfamily A member 2; assay: In vivo PROTAC activity at VHL/SMARCA2 in SCID mouse xenografted with human NCI-H838 cells assessed as reduction of SMARCA2 level in tumor at 50 mg/kg, iv administered as single dose measured after 3 hrs by Western blotting analysis; assay type: functional, organism-based; set-up: scale not given: the % may be the effect or the level left
Target sequence in this assay (P40337 whole entry, looked up, the tested form may be a part): as the sequence (P40337 whole entry, the tested form may be a part) above
Target sequence in this assay (P51531 whole entry, looked up, the tested form may be a part): as the sequence (P51531 whole entry, the tested form may be a part) above

[10] = molecular target: T1, von Hippel-Lindau disease tumor suppressor/SWI/SNF-related matrix-associated actin-dependent regulator of chromatin subfamily A member 2; assay: In vivo PROTAC activity at VHL/SMARCA2 in SCID mouse xenografted with human NCI-H838 cells assessed as remaining activity in tumor at 50 mg/kg, iv administered as single dose measured after 3 hrs by Western blotting analysis (reference value: 100 +/- 7% ); assay type: functional, organism-based
Target sequence in this assay (P40337 whole entry, looked up, the tested form may be a part): as the sequence (P40337 whole entry, the tested form may be a part) above
Target sequence in this assay (P51531 whole entry, looked up, the tested form may be a part): as the sequence (P51531 whole entry, the tested form may be a part) above

[11] = molecular target: T1, von Hippel-Lindau disease tumor suppressor/SWI/SNF-related matrix-associated actin-dependent regulator of chromatin subfamily A member 2; assay: In vivo PROTAC activity at VHL/SMARCA2 in SCID mouse xenografted with human MV4-11 cells assessed as reduction of SMARCA2 level in tumor at 50 mg/kg, iv administered as single dose measured after 6 hrs by Western blotting analysis; assay type: ADME, organism-based; set-up: scale not given: the % may be the effect or the level left
Target sequence in this assay (P51531 whole entry, the tested form may be a part): as above
Target sequence in this assay (P40337 whole entry, the tested form may be a part): as the sequence (P40337 whole entry, the tested form may be a part) above

[12] = molecular target: T1, von Hippel-Lindau disease tumor suppressor/SWI/SNF-related matrix-associated actin-dependent regulator of chromatin subfamily A member 2; assay: In vivo PROTAC activity at VHL/SMARCA2 in SCID mouse xenografted with human MV4-11 cells assessed as reduction of SMARCA2 level in tumor at 50 mg/kg, iv administered as single dose measured after 48 hrs by Western blotting analysis; assay type: ADME, organism-based; set-up: scale not given: the % may be the effect or the level left
Target sequence in this assay (P51531 whole entry, the tested form may be a part): as the sequence (P51531 whole entry, the tested form may be a part) above
Target sequence in this assay (P40337 whole entry, the tested form may be a part): as the sequence (P40337 whole entry, the tested form may be a part) above

[13] = molecular target: T1, von Hippel-Lindau disease tumor suppressor/SWI/SNF-related matrix-associated actin-dependent regulator of chromatin subfamily A member 2; assay: In vivo PROTAC activity at VHL/SMARCA2 in SCID mouse xenografted with human MV4-11 cells assessed as remaining activity in tumor at 50 mg/kg, iv administered as single dose measured after 48 hrs by Western blotting analysis (reference value: 100 +/- 15 % ); assay type: ADME, organism-based
Target sequence in this assay (P51531 whole entry, the tested form may be a part): as the sequence (P51531 whole entry, the tested form may be a part) above
Target sequence in this assay (P40337 whole entry, the tested form may be a part): as the sequence (P40337 whole entry, the tested form may be a part) above

[14] = molecular target: T1, von Hippel-Lindau disease tumor suppressor/SWI/SNF-related matrix-associated actin-dependent regulator of chromatin subfamily A member 2; assay: In vivo PROTAC activity at VHL/SMARCA2 in SCID mouse xenografted with human MV4-11 cells assessed as remaining activity in tumor at 50 mg/kg, iv administered as single dose measured after 96 hrs by Western blotting analysis (reference value: 100 +/- 15 % ); assay type: ADME, organism-based
Target sequence in this assay (P51531 whole entry, the tested form may be a part): as the sequence (P51531 whole entry, the tested form may be a part) above
Target sequence in this assay (P40337 whole entry, the tested form may be a part): as the sequence (P40337 whole entry, the tested form may be a part) above

[15] = molecular target: T2, von Hippel-Lindau disease tumor suppressor/SWI/SNF-related matrix-associated actin-dependent regulator of chromatin subfamily A member 4; assay: In vivo PROTAC activity at VHL/SMARCA4 in SCID mouse xenografted with human MV4-11 cells assessed as reduction of SMARCA4 level in tumor at 50 mg/kg, iv administered as single dose measured after 24 hrs by Western blotting analysis; assay type: ADME, organism-based; set-up: scale not given: the % may be the effect or the level left
[16] = molecular target: T2, von Hippel-Lindau disease tumor suppressor/SWI/SNF-related matrix-associated actin-dependent regulator of chromatin subfamily A member 4; assay: In vivo PROTAC activity at VHL/SMARCA4 in SCID mouse xenografted with human MV4-11 cells assessed as remaining activity in tumor at 50 mg/kg, iv administered as single dose measured after 2 hrs by Western blotting analysis (reference value: 100 +/- 15 % ); assay type: ADME, organism-based
[17] = molecular target: T2, von Hippel-Lindau disease tumor suppressor/SWI/SNF-related matrix-associated actin-dependent regulator of chromatin subfamily A member 4; assay: In vivo PROTAC activity at VHL/SMARCA4 in SCID mouse xenografted with human MV4-11 cells assessed as remaining activity in tumor at 50 mg/kg, iv administered as single dose measured after 96 hrs by Western blotting analysis (reference value: 100 +/- 15 % ); assay type: ADME, organism-based
[18] = Drug concentration in SCID mouse plasma xenografted with human MV4-11 cells at 50 mg/kg, iv measured after 48 hrs by LC-MS/MS method; assay type: ADME, organism-based
[19] = Drug concentration in SCID mouse plasma xenografted with human MV4-11 cells at 50 mg/kg, iv measured after 72 hrs by LC-MS/MS method; assay type: ADME, organism-based
[20] = Drug concentration in SCID mouse tumor xenografted with human MV4-11 cells at 50 mg/kg, iv measured after 72 hrs by LC-MS/MS method; assay type: ADME, organism-based, Neoplasm; settings: read-out: Ct
NCI-H838 = assay: Antitumor activity against SMARCA4-deficient human NCI-H838 cells xenografted in SCID mouse assessed as tumor growth inhibition at 50 mg/kg, iv administered twice a week measured after 3 weeks relative to control; assay type: functional; settings: NCI-H838, 504 h, read-out: TGI
[21] = Toxicity in SCID mouse xenografted with human SK-MEL-5 cells assessed as effect on change in body weight at 50 mg/kg, iv administered twice a week measured after 3 weeks; assay type: organism-based; settings: in vivo, 504 h

`Cc1ncsc1-c1ccc([C@H](C)NC(=O)[C@@H]2C[C@@H](O)CN2C(=O)[C@@H](NC(=O)[C@H]2CC[C@H](CN3CC4(CCC(n5cc(-c6cc(-c7ccccc7O)nnc6N)cn5)CC4)C3)CC2)C(C)(C)C)cc1` showed a DC50 [1] of 250 nM, an Emax [2] of 94% and an Emax [3] of 20%. For the same compound, the DC50 [4] was > 3300 nM, the Activity [5] was “inactive” and the Activity [6] was “inactive”. The Emax [7] was 90%, the GI50 [8] was 8.8 nM and the GI50 (NCI-H1975) was > 10000 nM. For the same compound, the GI50 (SK-MEL-28) was > 10000 nM, the Imax (NCI-H647) was 74% and the Activity [9] was 70%. The Activity [10] was 30%, the Activity [11] was 70% and the Activity [12] was 83%. The Activity [13] was 17%, the Activity [14] was 26% and the Activity [15] was 29%. It also gave an Activity [16] of 93%, an Activity [17] of 84% and a concentration at 48 h [18] of 60.5 ng/mL. For the same compound, the concentration at 72 h [19] was 6.7 ng/mL, the concentration at 72 h [20] was 370 ng/g and the inhibition in vivo at 50 mg/kg (NCI-H838) was 81%. For the same compound, the Activity [21] was “Non-Toxic”.
